What is called EC50 is the midpoint of the concentration-response curve.

The structures appear in SMILES notation. Read-outs that look alike come from different tables or passages of the source. Bounds are passed on as bounds.

We go through 15 molecules from patent US10399940B2, “Substituted pyrrolidines and methods of use” (AbbVie S.à.r.l., priority 2016, dated 2019).

The target in the test is T1, F508delCFTR (Homo sapiens, UniProt P13569, DEL508-508).
T1 construct: expressed in transfected cells; host or cells: CFBE41o- (human lung derived epithelial cell line), doxycycline-inducible expression
Nature of the test: Cell Surface Expression-Horse Radish Peroxidase (CSE-HRP) assay. It is filed as cell-based. The following applies: CFBE41o-F508delCFTR-HRP cells; for Maximum % activity (with co-corrector): with co-corrector (2 μM); for Maximum % activity (with co-corrector) / Maximum % activity (without co-corrector): normalized to on-plate positive control, highest concentration 20 μM. The essentials:
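CFBE41o- cells expressed F508delCFTR with HRP in the fourth exofacial loop, induced by 0.5 μg/mL doxycycline for 72 h at 37 °C. Compounds alone or with 2 μM co-corrector ran 18–24 h at 33 °C, 8-point 3-fold from 20 μM. Washed-cell luminol luminescence was normalized to DMSO and positive control, fitted sigmoidally for EC50 (three plates).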

[1] abbreviates: test compound without co-corrector, 18-24 hours at 33° C., read-out: EC50 (without co-corrector).
Setting [2] is: with co-corrector (2 μM of 3-[(2R,4R)-4-({[1-(2,2-difluoro-1,3-benzodioxol-5-yl)cyclopropyl]carbonyl}amino)-7-methoxy-3,4-dihydro-2H-chromen-2-yl]benzoic acid), read-out: EC50 (with co-corrector).

T1 sequence (P13569 with tags, fused parts or gaps DEL508-508): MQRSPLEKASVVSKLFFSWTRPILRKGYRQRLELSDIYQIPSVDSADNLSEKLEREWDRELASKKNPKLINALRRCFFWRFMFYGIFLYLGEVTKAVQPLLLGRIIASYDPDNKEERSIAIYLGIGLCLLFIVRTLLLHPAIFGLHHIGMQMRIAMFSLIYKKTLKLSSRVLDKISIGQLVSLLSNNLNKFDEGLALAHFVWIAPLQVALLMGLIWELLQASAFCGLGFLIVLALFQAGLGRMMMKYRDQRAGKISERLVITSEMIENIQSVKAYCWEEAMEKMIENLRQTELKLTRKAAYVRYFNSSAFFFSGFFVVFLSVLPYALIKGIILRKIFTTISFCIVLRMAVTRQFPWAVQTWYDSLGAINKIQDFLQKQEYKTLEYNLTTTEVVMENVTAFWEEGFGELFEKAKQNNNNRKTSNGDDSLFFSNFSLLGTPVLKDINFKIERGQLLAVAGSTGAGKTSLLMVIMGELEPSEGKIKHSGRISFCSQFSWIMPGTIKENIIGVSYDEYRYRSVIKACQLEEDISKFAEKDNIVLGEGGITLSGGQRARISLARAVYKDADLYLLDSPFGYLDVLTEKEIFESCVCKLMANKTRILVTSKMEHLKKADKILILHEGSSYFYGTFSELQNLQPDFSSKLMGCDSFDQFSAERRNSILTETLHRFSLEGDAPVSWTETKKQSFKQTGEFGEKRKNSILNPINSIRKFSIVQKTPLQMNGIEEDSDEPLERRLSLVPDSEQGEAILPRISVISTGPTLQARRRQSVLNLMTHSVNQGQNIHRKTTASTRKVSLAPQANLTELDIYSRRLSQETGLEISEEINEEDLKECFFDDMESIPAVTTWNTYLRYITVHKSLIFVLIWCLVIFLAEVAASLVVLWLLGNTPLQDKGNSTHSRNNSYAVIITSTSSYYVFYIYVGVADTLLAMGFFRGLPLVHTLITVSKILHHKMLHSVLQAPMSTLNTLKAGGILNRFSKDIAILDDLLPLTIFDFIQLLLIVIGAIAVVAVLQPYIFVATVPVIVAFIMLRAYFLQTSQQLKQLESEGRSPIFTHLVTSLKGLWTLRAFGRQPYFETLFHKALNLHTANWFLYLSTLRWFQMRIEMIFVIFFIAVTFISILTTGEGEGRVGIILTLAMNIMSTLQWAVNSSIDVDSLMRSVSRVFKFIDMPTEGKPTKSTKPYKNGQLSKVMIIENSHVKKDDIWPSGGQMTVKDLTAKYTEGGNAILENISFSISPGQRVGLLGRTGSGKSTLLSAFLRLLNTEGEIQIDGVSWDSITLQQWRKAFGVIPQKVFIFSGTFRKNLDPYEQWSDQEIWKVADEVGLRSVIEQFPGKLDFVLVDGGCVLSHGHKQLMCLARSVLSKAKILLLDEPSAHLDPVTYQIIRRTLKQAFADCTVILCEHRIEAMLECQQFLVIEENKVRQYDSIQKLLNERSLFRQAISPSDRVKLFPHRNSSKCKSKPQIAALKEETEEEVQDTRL

On to `COc1ncc(N2CCCCC2)cc1CO[C@H]1[C@H](C(C)(C)C)[C@@H](C(=O)O)N(C(=O)OC(C)C)[C@H]1c1ccccc1` [Example 81, (2S,3R,4S,5S)-3-tert-butyl-4-{[2-methoxy-5-(piperidin-1-yl)pyridin-3-yl]methoxy}-5-phenyl-1-{[(propan-2-yl)oxy]carbonyl}pyrrolidine-2-carboxylic acid], for which the “Maximum % activity (with co-corrector)” value is “++ (≥150 and <350)”; the “Maximum % activity (without co-corrector)” value was “+ (<100)”. Further, the 50% effective concentration (EC50) under setting [1] lay in the range of 1000 to 10000 nM. Besides, the half-maximal effective concentration (EC50) under setting [2] lay in the range of 1000 to 10000 nM.
With `COc1ncc(N2CCCC2)cc1CO[C@H]1[C@H](C(C)(C)C)[C@@H](C(=O)O)N(C(=O)OC(C)C)[C@H]1c1ccccc1` [Example 82, (2S,3R,4S,5S)-3-tert-butyl-4-{[2-methoxy-5-(pyrrolidin-1-yl)pyridin-3-yl]methoxy}-5-phenyl-1-{[(propan-2-yl)oxy]carbonyl}pyrrolidine-2-carboxylic acid], the “Maximum % activity (with co-corrector)” value is “++ (≥150 and <350)”; the “Maximum % activity (without co-corrector)” value is given as “+ (<100)”. Under setting [1], the concentration for a half-maximal effect (EC50) is 1000 to 10000 nM. Besides, the EC50 under setting [2] was in the range of 1000 to 10000 nM.
As to `COc1ncc(C(F)(F)F)cc1CO[C@H]1[C@H](C(C)(C)C)[C@@H](C(=O)O)N(C(=O)OC(C)C)[C@H]1c1ccccc1C` [Example 83, (2S,3R,4S,5S)-3-tert-butyl-4-{[2-methoxy-5-(trifluoromethyl)pyridin-3-yl]methoxy}-5-(2-methylphenyl)-1-{[(propan-2-yl)oxy]carbonyl}pyrrolidine-2-carboxylic acid], the “Maximum % activity (with co-corrector)” value is “+++ (≥350)”; the “Maximum % activity (without co-corrector)” value was “++ (≥100 and <200)”. Under setting [1], the EC50 is 1000 to 10000 nM. In addition, the EC50 under setting [2] was below 1000 nM.
Regarding `COc1ncc(N2CC(F)(F)C2)cc1CO[C@H]1[C@H](C(C)(C)C)[C@@H](C(=O)O)N(C(=O)OC(C)C)[C@H]1c1ccccc1` [Example 84, (2S,3R,4S,5S)-3-tert-butyl-4-{[5-(3,3-difluoroazetidin-1-yl)-2-methoxypyridin-3-yl]methoxy}-5-phenyl-1-{[(propan-2-yl)oxy]carbonyl}pyrrolidine-2-carboxylic acid], the “Maximum % activity (with co-corrector)” value is “++ (≥150 and <350)”; the “Maximum % activity (without co-corrector)” value was “+ (<100)”. For the same molecule, the EC50 under setting [1] lay in the range of 1000 to 10000 nM. In addition, under setting [2], the EC50 lay within 1000 to 10000 nM.
`COc1ncc(N2CCC(F)(F)C2)cc1CO[C@H]1[C@H](C(C)(C)C)[C@@H](C(=O)O)N(C(=O)OC(C)C)[C@H]1c1ccccc1` [Example 85, (2S,3R,4S,5S)-3-tert-butyl-4-{[5-(3,3-difluoropyrrolidin-1-yl)-2-methoxypyridin-3-yl]methoxy}-5-phenyl-1-{[(propan-2-yl)oxy]carbonyl}pyrrolidine-2-carboxylic acid]: the “Maximum % activity (with co-corrector)” value is “++ (≥150 and <350)”; the “Maximum % activity (without co-corrector)” value is reported as “+ (<100)”. Further, under setting [1], the EC50 was 1000 to 10000 nM. Moreover, the EC50 under setting [2] was in the range of 1000 to 10000 nM.
With `COc1ncc(C(F)(F)F)cc1CO[C@H]1[C@H](C(C)(C)C)[C@@H](C(=O)O)N(C(=O)OC(C)C)[C@H]1c1ccccc1Br` [Example 86, (2S,3R,4S,5S)-5-(2-bromophenyl)-3-tert-butyl-4-{[2-methoxy-5-(trifluoromethyl)pyridin-3-yl]methoxy}-1-{[(propan-2-yl)oxy]carbonyl}pyrrolidine-2-carboxylic acid], the “Maximum % activity (with co-corrector)” value was “+++ (≥350)”; the “Maximum % activity (without co-corrector)” value is “++ (≥100 and <200)”. Moreover, the EC50 under setting [1] is 1000 to 10000 nM. For the same molecule, under setting [2], the concentration for a half-maximal effect (EC50) was below 1000 nM.
On to `COc1ncc(C(F)(F)F)cc1CO[C@H]1[C@H](C(C)(C)C)[C@@H](C(=O)O)N(C(=O)OC(C)C)[C@H]1c1ccccc1C(C)C` [Example 87, (2S,3R,4S,5S)-3-tert-butyl-4-{[2-methoxy-5-(trifluoromethyl)pyridin-3-yl]methoxy}-1-{[(propan-2-yl)oxy]carbonyl}-5-[2-(propan-2-yl)phenyl]pyrrolidine-2-carboxylic acid], for which the “Maximum % activity (with co-corrector)” value is recorded as “+++ (≥350)”; the “Maximum % activity (without co-corrector)” value is “++ (≥100 and <200)”. In addition, the EC50 under setting [1] is 1000 to 10000 nM. In addition, the EC50 under setting [2] fell in the range of 1000 to 10000 nM.
Turning to `COc1ncc(C(F)(F)F)cc1CO[C@H]1[C@H](C(C)(C)C)[C@@H](C(=O)O)N(C(=O)[C@@H]2CCCO2)[C@H]1c1ccccc1` [Example 88, (2S,3R,4S,5S)-3-tert-butyl-4-{[2-methoxy-5-(trifluoromethyl)pyridin-3-yl]methoxy}-1-[(2S)-oxolane-2-carbonyl]-5-phenylpyrrolidine-2-carboxylic acid], the “Maximum % activity (with co-corrector)” value is on record as “+++ (≥350)”; the “Maximum % activity (without co-corrector)” value is “++ (≥100 and <200)”. Also, the EC50 under setting [1] was in the range of 1000 to 10000 nM. For the same molecule, the EC50 under setting [2] was below 1000 nM.
For `COc1ncc(C(F)(F)F)cc1CO[C@H]1[C@H](C(C)(C)C)[C@@H](C(=O)O)N(C(=O)[C@@H]2CCCCO2)[C@H]1c1ccccc1` [Example 89, (2S,3R,4S,5S)-3-tert-butyl-4-{[2-methoxy-5-(trifluoromethyl)pyridin-3-yl]methoxy}-1-[(2S)-oxane-2-carbonyl]-5-phenylpyrrolidine-2-carboxylic acid], the “Maximum % activity (with co-corrector)” value is recorded as “+++ (≥350)”; the “Maximum % activity (without co-corrector)” value was “++ (≥100 and <200)”. Further, the EC50 under setting [1] was in the range of 1000 to 10000 nM. Besides, the EC50 under setting [2] was below 1000 nM.
For the molecule `C=CCOC(=O)N1[C@H](C(=O)O)[C@@H](C(C)(C)C)[C@H](OCc2cc(C(F)(F)F)cnc2OC)[C@@H]1c1ccccc1` [Example 90, (2S,3R,4S,5S)-3-tert-butyl-4-{[2-methoxy-5-(trifluoromethyl)pyridin-3-yl]methoxy}-5-phenyl-1-{[(prop-2-en-1-yl)oxy]carbonyl}pyrrolidine-2-carboxylic acid], the “Maximum % activity (with co-corrector)” value is on record as “+++ (≥350)” and the “Maximum % activity (without co-corrector)” value is on record as “+ (<100)”. Further, the EC50 under setting [1] was in the range of 1000 to 10000 nM. For the same molecule, under setting [2], the EC50 was 1000 to 10000 nM.
On to `COc1ncc(C(F)(F)F)cc1CO[C@H]1[C@H](C(C)(C)C)[C@@H](C(=O)O)N(C(=O)[C@H]2CCCCO2)[C@H]1c1ccccc1` [Example 91, (2S,3R,4S,5S)-3-tert-butyl-4-{[2-methoxy-5-(trifluoromethyl)pyridin-3-yl]methoxy}-1-[(2R)-oxane-2-carbonyl]-5-phenylpyrrolidine-2-carboxylic acid], for which the “Maximum % activity (with co-corrector)” value is on record as “+++ (≥350)”; the “Maximum % activity (without co-corrector)” value is “++ (≥100 and <200)”. In addition, the EC50 under setting [1] fell in the range of 1000 to 10000 nM. Also, the EC50 under setting [2] is 1000 to 10000 nM.
For the molecule `COc1ncc(C(F)(F)F)cc1CO[C@H]1[C@H](C(C)(C)C)[C@@H](C(=O)O)N(C(=O)OC(C)C)[C@H]1c1ccccc1C1CC1` [Example 92, (2S,3R,4S,5S)-3-tert-butyl-5-(2-cyclopropylphenyl)-4-{[2-methoxy-5-(trifluoromethyl)pyridin-3-yl]methoxy}-1-{[(propan-2-yl)oxy]carbonyl}pyrrolidine-2-carboxylic acid], the “Maximum % activity (with co-corrector)” value is on record as “+++ (≥350)”; the “Maximum % activity (without co-corrector)” value is “++ (≥100 and <200)”. Moreover, under setting [1], the concentration for a half-maximal effect (EC50) was 1000 to 10000 nM. Also, the EC50 under setting [2] lay within 1000 to 10000 nM.
Regarding `COc1ncc(C2CCC2)cc1CO[C@H]1[C@H](C(C)(C)C)[C@@H](C(=O)O)N(C(=O)OC(C)C)[C@H]1c1ccccc1C(C)C` [Example 93, (2S,3R,4S,5S)-3-tert-butyl-4-[(5-cyclobutyl-2-methoxypyridin-3-yl)methoxy]-1-{[(propan-2-yl)oxy]carbonyl}-5-[2-(propan-2-yl)phenyl]pyrrolidine-2-carboxylic acid], the “Maximum % activity (with co-corrector)” value is “+++ (≥350)”; the “Maximum % activity (without co-corrector)” value is “++ (≥100 and <200)”. Also, the EC50 under setting [1] fell in the range of 1000 to 10000 nM. The EC50 under setting [2] was 1000 to 10000 nM.
On to `COc1ccc(C(F)(F)F)cc1CO[C@@H]1[C@H](C(C)(C)C)[C@@H](C(=O)O)N(C(=O)OC(C)C)[C@H]1c1cccnc1OC(C)C` [Example 94, (2S,3R,4R,5S)-3-tert-butyl-4-{[2-methoxy-5-(trifluoromethyl)phenyl]methoxy}-1-{[(propan-2-yl)oxy]carbonyl}-5-{2-[(propan-2-yl)oxy]pyridin-3-yl}pyrrolidine-2-carboxylic acid], for which the “Maximum % activity (with co-corrector)” value is reported as “+ (<150)” and the “Maximum % activity (without co-corrector)” value was “+ (<100)”. Besides, under setting [1], the EC50 is above 10000 nM. Moreover, under setting [2], the EC50 was below 1000 nM.
For the molecule `COc1ncc(C2CCC2)cc1CO[C@H]1[C@H](C(C)(C)C)[C@@H](C(=O)O)N(C(=O)OC(C)C)[C@H]1c1cccnc1OC(C)C` [Example 95, (2S,3R,4S,5S)-3-tert-butyl-4-[(5-cyclobutyl-2-methoxypyridin-3-yl)methoxy]-1-{[(propan-2-yl)oxy]carbonyl}-5-{2-[(propan-2-yl)oxy]pyridin-3-yl}pyrrolidine-2-carboxylic acid], the “Maximum % activity (with co-corrector)” value is given as “+++ (≥350)”; the “Maximum % activity (without co-corrector)” value is “++ (≥100 and <200)”. Moreover, the EC50 under setting [1] is 1000 to 10000 nM. Also, the EC50 under setting [2] was below 1000 nM.
